Literature values in the PKSmart pharmacokinetics tables (Seal et al. 2025).

Assays:
[1] = Lombardo et al. 2013, J Clin Pharmacol 53:178, doi 10.1177/0091270012440282; settings: for fraction unbound: plasma; for Vd / clearance: in vivo, iv
[2] = Lombardo, Berellini, Obach 2018, Drug Metab Dispos 46:1466, doi 10.1124/dmd.118.082966; settings: human; for fraction unbound: plasma; for MRT / Vd / clearance / half-life: in vivo, iv

Structure (SMILES)	fraction unbound ([1]; rat)	fraction unbound [2]	Vd ([1]; dog)	clearance ([1]; dog)	Vd ([1]; monkey)	clearance ([1]; monkey)	Vd ([1]; rat)	clearance ([1]; rat)	MRT [2]	Vd [2]	clearance [2]	half-life [2]	fraction unbound ([1]; dog)	fraction unbound ([1]; monkey)
CN(c1nc2ccccc2s1)C1CCN(C[C@H](O)COc2ccc(F)c(F)c2)CC1	0.008	0.003												
NC(C(=O)O)[C@@H]1CC(Cl)=NO1 (some centres undefined)			0.58 L/kg	1.4 mL/min/kg	0.61 L/kg	2.3 mL/min/kg	0.74 L/kg	6.4 mL/min/kg	12 h	0.5 L/kg	0.69 mL/min/kg	9.9 h		
CC(CC(c1ccccc1)c1ccccc1)NC(C)(C)C (centres undefined)				41 mL/min/kg					81 h	5.1 L/kg	1.1 mL/min/kg	56 h	0.14	
CC(C)(C)NC(=O)C1CN(Cc2cccnc2)CCN1C[C@@H](O)CC(Cc1ccccc1)C(=O)N[C@H]1c2ccccc2C[C@H]1O (some centres undefined)			0.73 L/kg	15 mL/min/kg	1.45 L/kg	35.7 mL/min/kg	2.2 L/kg	89 mL/min/kg	0.76 h	0.82 L/kg		1 h		
O=C(O)P(=O)(O)O			0.65 L/kg	3.62 mL/min/kg						0.5 L/kg	2.1 mL/min/kg	4.7 h		
C[C@H]1[C@H](OC(=O)CCC(=O)O)O[C@@H]2O[C@@]3(C)CC[C@H]4[C@H](C)CC[C@@H]1[C@@]24OO3	0.22	0.25		44 mL/min/kg				212 mL/min/kg	0.32 h		1070 mL/min/kg	0.22 h	0.181	
CC1(C)S[C@@H]2C(NC(=O)C(C(=O)O)c3ccsc3)C(=O)N2C1C(=O)O (some centres undefined)		0.55	0.28 L/kg	4.3 mL/min/kg					1.5 h	0.16 L/kg	1.8 mL/min/kg	1 h		
Cn1nnnc1SCC1=C(C(=O)O)N2C(=O)C(NC(=O)C(O)c3ccccc3)[C@H]2SC1 (some centres undefined)		0.25					0.25 L/kg	21.8 mL/min/kg	0.75 h	0.16 L/kg	3.6 mL/min/kg	0.75 h		
Cc1nnc2n1-c1sc(Br)cc1C(c1ccccc1Cl)=NC2	0.22	0.092	6.1 L/kg	11 mL/min/kg	6.5 L/kg	13 mL/min/kg	3 L/kg	23 mL/min/kg	6 h	0.75 L/kg	2 mL/min/kg	4.8 h		
CC(C)(C)NCC(O)c1cc(O)cc(O)c1 (centres undefined)							3.3 L/kg	60 mL/min/kg	7.4 h	1.5 L/kg	3.4 mL/min/kg	15 h		
CCC1(c2ccccc2)C(=O)NC(=O)NC1=O	0.64		0.79 L/kg	0.1 mL/min/kg			1.02 L/kg	0.8 mL/min/kg	140 h	0.54 L/kg	0.063 mL/min/kg	99 h	0.54	
CC(=N)N1CC[C@H](SC2=C(C(=O)O)N3C(=O)C([C@@H](C)O)[C@H]3C2)C1 (some centres undefined)	0.95		0.21 L/kg	4.85 mL/min/kg	0.3 L/kg	6.52 mL/min/kg	0.2 L/kg	27.7 mL/min/kg	1.2 h	0.19 L/kg	2.6 mL/min/kg	0.96 h	0.95	0.93
Cc1cccnc1NS(=O)(=O)c1ccc(C#Cc2ccc(O)c(C(=O)O)c2)cc1	0.0033	0.0019	0.19 L/kg	20 mL/min/kg	0.08 L/kg	1.9 mL/min/kg	1.2 L/kg	62 mL/min/kg	23.8 h	0.1 L/kg	0.07 mL/min/kg	16 h	0.01	0.003
Cc1cccc(C)c1NC(=O)C(C)N (centres undefined)							5 L/kg	37.8 mL/min/kg	14 h	1.8 L/kg	2.2 mL/min/kg	12 h		
COc1ccc2c3c1O[C@H]1[C@@H](O)C=C[C@H]4[C@@H](C2)N(C)CC[C@@]341	0.92	0.7							3.9 h	3.5 L/kg	15 mL/min/kg	4 h		
CC1(C)S[C@@H]2C(NC(=O)C(N)c3ccc(O)cc3)C(=O)N2C1C(=O)O (some centres undefined)			0.31 L/kg	3.4 mL/min/kg			0.5 L/kg	17 mL/min/kg	1.3 h	0.25 L/kg	3.3 mL/min/kg	1.1 h	0.66	
CN(C)CCCC1(c2ccc(F)cc2)OCc2cc(C#N)ccc21 (centres undefined)	0.26		10 L/kg	14 mL/min/kg	10 L/kg	40 mL/min/kg	21 L/kg	82 mL/min/kg	47 h		4.3 mL/min/kg	33 h	0.444	0.399
C[C@H]1NCc2cc(-c3ccc4c(=O)c(C(=O)O)cn(C5CC5)c4c3OC(F)F)ccc21	0.13	0.25	1.29 L/kg	2.43 mL/min/kg	0.96 L/kg	3.39 mL/min/kg	0.9 L/kg	12.1 mL/min/kg	13.7 h	1 L/kg	1.23 mL/min/kg		0.23	0.19
Cc1cn([C@H]2C=C[C@@H](CO)O2)c(=O)[nH]c1=O	0.9	1			0.8 L/kg	9.4 mL/min/kg	1.09 L/kg	20.2 mL/min/kg	1.4 h	0.67 L/kg	8.2 mL/min/kg	1.4 h	0.9	0.9
CN(C)CCC=C1c2ccccc2CCc2ccccc21	0.11						11 L/kg	71 mL/min/kg	24 h	8.7 L/kg	6.1 mL/min/kg	17 h		
CC(C)N(CCC(C(N)=O)(c1ccccc1)c1ccccn1)C(C)C (centres undefined)		0.16	1.27 L/kg	9.87 mL/min/kg				34 mL/min/kg	9.6 h	0.52 L/kg	0.9 mL/min/kg	7 h		

Structure (SMILES)	fraction unbound ([1]; rat)	fraction unbound [2]	Vd ([1]; dog)	clearance ([1]; dog)	Vd ([1]; monkey)	clearance ([1]; monkey)	Vd ([1]; rat)	clearance ([1]; rat)	MRT [2]	Vd [2]	clearance [2]	half-life [2]	fraction unbound ([1]; dog)	fraction unbound ([1]; monkey)
CN[C@@H](C)Cc1ccccc1	0.92	0.85					9 L/kg	126 mL/min/kg	16 h	4.3 L/kg	4.4 mL/min/kg	12 h		
CO[C@@]1(NC(=O)Cc2cccs2)C(=O)N2C(C(=O)O)=C(COC(N)=O)CS[C@@H]21		0.73	0.6 L/kg	11 mL/min/kg					0.79 h	0.17 L/kg	3.6 mL/min/kg	0.81 h		
C#C[C@]1(O)CC[C@H]2[C@@H]3CCc4cc(OS(=O)(=O)O)ccc4[C@H]3CC[C@@]21C		0.011			21 L/kg	39 mL/min/kg			8.2 h	2.3 L/kg	4.7 mL/min/kg	8.4 h		
CC(C)NCC(O)COc1cccc2ccccc12 (centres undefined)	0.1		6.79 L/kg	51.8 mL/min/kg	2.28 L/kg	20.8 mL/min/kg	4.58 L/kg	94.3 mL/min/kg	4.3 h	3.1 L/kg	12 mL/min/kg	3.4 h	0.04	0.03
Nc1nc(NC2CC2)c2ncn([C@H]3C=C[C@@H](CO)C3)c2n1		0.5						30 mL/min/kg	1.1 h	0.84 L/kg	13 mL/min/kg	1 h		
CCC1(c2cccc(O)c2)CCCCN(C)C1 (centres undefined)		0.73					4.4 L/kg	58.4 mL/min/kg	2 h	3.3 L/kg	28 mL/min/kg	1.7 h		
CCOc1ccc(NC(C)=O)cc1		0.47	0.89 L/kg	15.7 mL/min/kg					1.1 h	1.4 L/kg		0.92 h		
O=C(O)CC(NC(=O)CP(=O)(O)O)C(=O)O (centres undefined)			0.29 L/kg	4.1 mL/min/kg	0.2 L/kg	2.3 mL/min/kg	1.1 L/kg	17.4 mL/min/kg	4.51 h	0.33 L/kg	1.22 mL/min/kg	4.78 h		
COc1c(N2CCNC(C)C2)c(F)cc2c(=O)c(C(=O)O)cn(C3CC3)c12 (centres undefined)	0.75		2.11 L/kg	4.2 mL/min/kg	1.85 L/kg	10.2 mL/min/kg	2.5 L/kg	19.3 mL/min/kg	11 h	1.7 L/kg	2.8 mL/min/kg	10 h	0.84	0.83
Cn1c(=O)c2c(ncn2C)n(C)c1=O			0.76 L/kg	2.35 mL/min/kg	0.83 L/kg	3.06 mL/min/kg	0.92 L/kg	12.5 mL/min/kg	7.5 h	0.63 L/kg	1.4 mL/min/kg	4.9 h		
CN(Cc1cnc2nc(N)nc(N)c2n1)c1ccc(C(=O)NC(CCC(=O)O)C(=O)O)cc1 (centres undefined)	0.68								3.4 h	0.43 L/kg	2.1 mL/min/kg			
CC1(C)S[C@@H]2C(NC(=O)C(NC(=O)N3CCN(S(C)(=O)=O)C3=O)c3ccccc3)C(=O)N2C1C(=O)O (some centres undefined)	0.65	0.7					0.3 L/kg	50 mL/min/kg	0.71 h	0.09 L/kg	2.1 mL/min/kg	1.2 h		
CN1CCN(c2c(F)cc3c(=O)c(C(=O)O)cn(CCF)c3c2F)CC1	0.49		1.3 L/kg	1.6 mL/min/kg	1.2 L/kg	4 mL/min/kg	1.3 L/kg	5.8 mL/min/kg	11 h	1.6 L/kg	2.4 mL/min/kg	8.6 h	0.51	0.607
CN1C(=O)NC(=O)C(C)(C2=CCCCC2)C1=O (centres undefined)		0.53					2.5 L/kg	40.6 mL/min/kg	5.4 h	1.1 L/kg	3.4 mL/min/kg	4.9 h		
O=P1(N(CCCl)CCCl)NCCCO1 (centres undefined)			0.7 L/kg	20 mL/min/kg			0.67 L/kg	11.1 mL/min/kg	11 h	0.73 L/kg	1.1 mL/min/kg	8 h		
Nc1[nH]c(=O)ncc1F			0.64 L/kg	2.4 mL/min/kg					5.7 h	0.68 L/kg	2 mL/min/kg	4.2 h		
NCC1(CC(=O)O)CCCCC1	0.02		0.16 L/kg	2.3 mL/min/kg	0.65 L/kg	2.3 mL/min/kg	1.1 L/kg	9.1 mL/min/kg	7 h	0.71 L/kg	1.7 mL/min/kg	5.3 h		0.02
CCOC(=O)C1(c2ccccc2)CCN(C)CC1		0.42	2.4 L/kg	43 mL/min/kg			9.2 L/kg	245 mL/min/kg	6.4 h	2.3 L/kg	4.9 mL/min/kg	7.9 h		
CN(C)CCc1c[nH]c2ccc(Cn3cncn3)cc12			2.5 L/kg	40 mL/min/kg				79 mL/min/kg	2 h	1.9 L/kg	16 mL/min/kg	2.2 h		
CC(C)NCC(O)COc1cccc2[nH]ccc12 (centres undefined)			17 L/kg				1.36 L/kg		2.6 h	1.2 L/kg		2.2 h		
CN(C)CCCN1c2ccccc2CCc2ccc(Cl)cc21			3.7 L/kg	23.3 mL/min/kg					26 h	13 L/kg	8.2 mL/min/kg		0.01	
